Laboratory results taken from PubChem BioAssay AID2060620 (Molecular Pharmacology Branch, DTP, NCI, 2025).

Test system: 328373-195-R-J1-PDC complex spheroids, viability % test/control
Experiment: Anticancer human tumor 328373-195-R-J1-PDC patient-derived head and neck squamous carcinoma cell line growth inhibition [CLK]
Settings: for IC50: curve of first compound; for viability, T/C: stronger effect = lower value
Outline: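 Multi-cell-type spheroids combined patient-derived tumor cells with HUVEC endothelial cells and human mesenchymal stem cells. Paired agents were dosed in half-log steps down from about clinical Cmax, or from 10 microM where Cmax was unknown.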

[1] = second compound 0.0316 µM, first compound 0.0316 µM
[2] = second compound 0.0316 µM, first compound 0.1 µM
[3] = second compound 0.0316 µM, first compound 0.316 µM
[4] = second compound 0.0316 µM, first compound 1 µM
[5] = second compound 0.0316 µM, first compound 3.16 µM
[6] = second compound 0.0316 µM, first compound 10 µM
[7] = second compound 0.1 µM, first compound 0.0316 µM
[8] = second compound 0.1 µM, first compound 0.1 µM
[9] = second compound 0.1 µM, first compound 0.316 µM
[10] = second compound 0.1 µM, first compound 1 µM
[11] = second compound 0.1 µM, first compound 3.16 µM
[12] = second compound 0.1 µM, first compound 10 µM
[13] = second compound 0.316 µM, first compound 0.0316 µM
[14] = second compound 0.316 µM, first compound 0.1 µM
[15] = second compound 0.316 µM, first compound 0.316 µM
[16] = second compound 0.316 µM, first compound 1 µM
[17] = second compound 0.316 µM, first compound 3.16 µM
[18] = second compound 0.316 µM, first compound 10 µM
[19] = second compound 1 µM, first compound 0.0316 µM
[20] = second compound 1 µM, first compound 0.1 µM
[21] = second compound 1 µM, first compound 0.316 µM
[22] = second compound 1 µM, first compound 1 µM
[23] = second compound 1 µM, first compound 3.16 µM
[24] = second compound 1 µM, first compound 10 µM
[25] = second compound 3.16 µM, first compound 0.0316 µM
[26] = second compound 3.16 µM, first compound 0.1 µM
[27] = second compound 3.16 µM, first compound 0.316 µM
[28] = second compound 3.16 µM, first compound 1 µM
[29] = second compound 3.16 µM, first compound 3.16 µM
[30] = second compound 3.16 µM, first compound 10 µM
[31] = second compound 10 µM, first compound 0.0316 µM
[32] = second compound 10 µM, first compound 0.1 µM
[33] = second compound 10 µM, first compound 0.316 µM
[34] = second compound 10 µM, first compound 1 µM
[35] = second compound 10 µM, first compound 3.16 µM
[36] = second compound 10 µM, first compound 10 µM
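Also: spheroids exposed to the agents for 7 days.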

COc1ccc([C@@H](O)c2cc(-c3ncnc4cc(N5CCOCC5)ccc34)c(F)cc2Cl)nn1 + CN1CCN(c2cc(C(=O)Nc3cc4cc(-c5cnn(C)c5)ccc4cn3)ccn2)CC1
IC50 (second compound 0.0316 µM): > 10000 nM
IC50 (second compound 0.1 µM): 8160 nM
IC50 (second compound 0.316 µM): < 31.6 nM
IC50 (second compound 1 µM): < 31.6 nM
IC50 (second compound 3.16 µM): < 31.6 nM
IC50 (second compound 10 µM): < 31.6 nM
viability, T/C [1]: 91.6%
viability, T/C [2]: 103%
viability, T/C [3]: 91.1%
viability, T/C [4]: 96.7%
viability, T/C [5]: 71.7%
viability, T/C [6]: 51.5%
viability, T/C [7]: 73.2%
viability, T/C [8]: 87.5%
viability, T/C [9]: 73%
viability, T/C [10]: 96.7%
viability, T/C [11]: 71.5%
viability, T/C [12]: 45.4%
viability, T/C [13]: 21%
viability, T/C [14]: 25.2%
viability, T/C [15]: 20.6%
viability, T/C [16]: 17.7%
viability, T/C [17]: 21.5%
viability, T/C [18]: 22.5%
viability, T/C [19]: 0.11%
viability, T/C [20]: 2.93%
viability, T/C [21]: 2.16%
viability, T/C [22]: 2.41%
viability, T/C [23]: 1.4%
viability, T/C [24]: 2.54%
viability, T/C [25]: 2.66%
viability, T/C [26]: 0.1%
viability, T/C [27]: 0.14%
viability, T/C [28]: 0.11%
viability, T/C [29]: 3.57%
viability, T/C [30]: 2.6%
viability, T/C [31]: 1.28%
viability, T/C [32]: 1.19%
viability, T/C [33]: 0.19%
viability, T/C [34]: 0.13%
viability, T/C [35]: 0.17%
viability, T/C [36]: 1.61%

C=CC(=O)N1CCN(c2nc(=O)n(-c3c(C)ccnc3C(C)C)c3nc(-c4c(O)cccc4F)c(F)cc23)C(C)C1 (stereo not drawn) + CNC(=O)c1ccc(Nc2nc(OC3CCCC3)c3c(-c4ccc5nc(C)oc5c4)c[nH]c3n2)c(OC)c1
IC50 (second compound 0.0316 µM): > 10000 nM
IC50 (second compound 0.1 µM): < 31.6 nM
IC50 (second compound 0.316 µM): < 31.6 nM
IC50 (second compound 1 µM): < 31.6 nM
IC50 (second compound 3.16 µM): < 31.6 nM
IC50 (second compound 10 µM): < 31.6 nM
viability, T/C [1]: 57.3%
viability, T/C [2]: 59.7%
viability, T/C [3]: 60.2%
viability, T/C [4]: 64.9%
viability, T/C [5]: 65.1%
viability, T/C [6]: 47.7%
viability, T/C [7]: 11.2%
viability, T/C [8]: 10.2%
viability, T/C [9]: 11.6%
viability, T/C [10]: 12.8%
viability, T/C [11]: 13.2%
viability, T/C [12]: 9.6%
viability, T/C [13]: 8.33%
viability, T/C [14]: 10.6%
viability, T/C [15]: 9.38%
viability, T/C [16]: 10.4%
viability, T/C [17]: 13.9%
viability, T/C [18]: 10.3%
viability, T/C [19]: 10.1%
viability, T/C [20]: 9.55%
viability, T/C [21]: 9.73%
viability, T/C [22]: 10.4%
viability, T/C [23]: 13.2%
viability, T/C [24]: 8.42%
viability, T/C [25]: 10.1%
viability, T/C [26]: 13.2%
viability, T/C [27]: 10.9%
viability, T/C [28]: 10.9%
viability, T/C [29]: 15.1%
viability, T/C [30]: 10.7%
viability, T/C [31]: 12.8%
viability, T/C [32]: 11.7%
viability, T/C [33]: 12.2%
viability, T/C [34]: 13.3%
viability, T/C [35]: 14.5%
viability, T/C [36]: 8.55%

CCCS(=O)(=O)Nc1ccc(F)c(C(=O)c2c[nH]c3ncc(-c4ccc(Cl)cc4)cc23)c1F + CNC(=O)c1ccc(Nc2nc(OC3CCCC3)c3c(-c4ccc5nc(C)oc5c4)c[nH]c3n2)c(OC)c1
IC50 (second compound 0.0316 µM): > 10000 nM
IC50 (second compound 0.1 µM): < 31.6 nM
IC50 (second compound 0.316 µM): < 31.6 nM
IC50 (second compound 1 µM): < 31.6 nM
IC50 (second compound 3.16 µM): < 31.6 nM
IC50 (second compound 10 µM): < 31.6 nM
viability, T/C [1]: 61.7%
viability, T/C [2]: 59.5%
viability, T/C [3]: 62.4%
viability, T/C [4]: 66.1%
viability, T/C [5]: 56.8%
viability, T/C [6]: 43.3%
viability, T/C [7]: 11.7%
viability, T/C [8]: 10.9%
viability, T/C [9]: 12%
viability, T/C [10]: 15.7%
viability, T/C [11]: 13.9%
viability, T/C [12]: 15.6%
viability, T/C [13]: 10.2%
viability, T/C [14]: 11.3%
viability, T/C [15]: 11%
viability, T/C [16]: 12.2%
viability, T/C [17]: 10.6%
viability, T/C [18]: 13.5%
viability, T/C [19]: 10.9%
viability, T/C [20]: 10.5%
viability, T/C [21]: 11.3%
viability, T/C [22]: 10.7%
viability, T/C [23]: 11.1%
viability, T/C [24]: 15.2%
viability, T/C [25]: 10.8%
viability, T/C [26]: 11.3%
viability, T/C [27]: 10.3%
viability, T/C [28]: 11.4%
viability, T/C [29]: 12.7%
viability, T/C [30]: 15.8%
viability, T/C [31]: 13.8%
viability, T/C [32]: 11.1%
viability, T/C [33]: 11.2%
viability, T/C [34]: 14.1%
viability, T/C [35]: 16.6%
viability, T/C [36]: 16.4%

COC1C=CCC(C)C(C)S(=O)(=O)NC(=O)c2ccc3c(c2)N(CC2CCC21)CC1(CCCc2cc(Cl)ccc21)CO3 (stereo not drawn) + CNC(=O)c1ccc(Nc2nc(OC3CCCC3)c3c(-c4ccc5nc(C)oc5c4)c[nH]c3n2)c(OC)c1
IC50 (second compound 0.0316 µM): 4280 nM
IC50 (second compound 0.1 µM): < 31.6 nM
IC50 (second compound 0.316 µM): < 31.6 nM
IC50 (second compound 1 µM): < 31.6 nM
IC50 (second compound 3.16 µM): < 31.6 nM
IC50 (second compound 10 µM): < 31.6 nM
viability, T/C [1]: 56.2%
viability, T/C [2]: 70.6%
viability, T/C [3]: 81.3%
viability, T/C [4]: 83%
viability, T/C [5]: 66.2%
viability, T/C [6]: 4.89%
viability, T/C [7]: 13%
viability, T/C [8]: 13.1%
viability, T/C [9]: 12.5%
viability, T/C [10]: 15.2%
viability, T/C [11]: 9.14%
viability, T/C [12]: 2.12%
viability, T/C [13]: 12.3%
viability, T/C [14]: 11.6%
viability, T/C [15]: 11.9%
viability, T/C [16]: 8.54%
viability, T/C [17]: 6.49%
viability, T/C [18]: 5.35%
viability, T/C [19]: 12.7%
viability, T/C [20]: 11.2%
viability, T/C [21]: 9.61%
viability, T/C [22]: 8.8%
viability, T/C [23]: 6.45%
viability, T/C [24]: 5.97%
viability, T/C [25]: 11.9%
viability, T/C [26]: 12.1%
viability, T/C [27]: 10.3%
viability, T/C [28]: 7.26%
viability, T/C [29]: 6.87%
viability, T/C [30]: 11.6%
viability, T/C [31]: 13.3%
viability, T/C [32]: 13.5%
viability, T/C [33]: 10.2%
viability, T/C [34]: 8.44%
viability, T/C [35]: 8.98%
viability, T/C [36]: 9.48%
